Reference: patent publication US6943190B2, “Method of using pyruvate and/or its derivatives for the treatment of cytokine-mediated inflammatory conditions” (University of Pittsburgh-of the Commonwealth System of …, priority 2001, dated 2005)

System: lethal endotoxemia (E. coli lipopolysaccharide)
Assay: Lethal endotoxemia (LPS) in mice: survival and morbidity
Format: in vivo, Balb/C mice
Settings: for survival: P<0.005
Method: Animal Experiments. Male 6-8 week old Balb/C mice (20-25 g) were purchased from Harlen Sprague-Dawley (Indianapolis, Ind.) and allowed to acclimate for 7 days housed at 25° C. on a 12 h light/dark cycle. Animals were randomly grouped (10 mice per group) and assigned to a specific experiment. All animal experiments were performed in accordance with the National Institutes of Health Guidelines under protocols approved by the Institutional Animal Care and Use Committee of North Shore University Hospital and New York University Medical School.
Endotoxin shock. Mice were injected with endotoxin (Escherichia coli lipopolysaccharide, LPS 0111:B4; Sigma Chemical Co, St. Louis, Mo.) that was dissolved in sterile pyrogen-free saline at stock concentrations of 10 mg/ml. LPS solutions were sonicated for 20 min immediately prior to use for each experiment. Mice received an LD75 dose of LPS (5 mg/kg, i.p.). Blood was collected at different times after LPS administration, allowed to clot for 2 h at room temperature, then centrifuged for 20 min at 1,500 g. Serum samples were stored at […] prior to analysis. Mortality was recorded for up to 3 weeks after injection to ensure that no additional late deaths occurred.
Ethyl Pyruvate Solution: Ethyl pyruvate was prepared in solution with sodium (130 mM), potassium (4 mM), calcium (2.7 mM), chloride (130 mM), and ethyl pyruvate (28 mM); pH 7.0). For injections in mice solutions were diluted so that each injection volume was 0.4 ml per dose.
The initial evaluation of ethyl pyruvate (EP) was conducted as a therapeutic solution in lethal systemic inflammation in a standard model of murine endotoxemia. Balb/c mice received a single dose of ethyl pyruvate (40 mg ethyl pyruvate/kg mouse) 30 minutes before the onset of lethal endotoxemia (E. coli lipopolysaccharide, LPS, 5 mg LPS/kg, i.p.). Ethyl pyruvate pretreatment protected BALB/c mice from lethal endotoxemia (ethyl pyruvate survival=20/20 versus vehicle control survival=3/20; P<0.005) (FIG. 3A).
The therapeutic efficacy of the delayed administration of ethyl pyruvate after the onset of endotoxemia was assessed. Ethyl pyruvate dosing in endotoxemic mice was initiated 4 hours after the onset of endotoxemia, when clinical signs were already evident, including diarrhea, piloerection, and depressed spontaneous activity (FIG. 4A).

CCOC(=O)C(C)=O [ethyl pyruvate]
clinical signs of morbidity (delayed treatment beginning 4 hours after LPS): reversed clinical signs of morbidity
survival (delayed treatment: 40 mg/kg i.p. at 4, 8, 12, 24 and 30 hours after LPS, vehicle 5/20): 17/20
clinical manifestations of endotoxin morbidity (pretreatment 40 mg/kg 30 minutes before LPS 5 mg/kg i.p.): significantly prevented the clinical manifestations of endotoxin morbidity
survival (pretreatment: single dose 40 mg/kg i.p. 30 minutes before LPS 5 mg/kg i.p., vehicle 3/20): 20/20
survival (pretreatment: single dose 40 mg/kg i.p. 30 minutes before LPS 5 mg/kg i.p., vehicle 3/20, listed as EP): conferred significant protection against lethality
